Measurements published in patent publication US4431662A, “1-(1,3-Benzodioxol-5-yl)-2-pyrrolidinone and its medicinal use” (priority 1981, dated 1984).

What was measured:
[1] = Modified Trypsin Hyperalgesic Assay (THA) in the rat; format: in vivo
Description: The analgesic agents were administered 30 minutes after the administration of trypsin. In addition, a modification of Vinegar's published assay was carried out, comprising the administration of the analgesic agent preceding subplantar injection of trypsin (0.10 ml of 10% solution of trypsin in pyrogen-free water) by 15 minutes. In both THA's, pain scores were determined 60 minutes after trypsin injection. The result of the modification was to increase the sensitivity of the THA to the mild analgesic action of the agents.
There were usually 6 rats at each dose level and at least 3 dose levels were used.

Rat Hot Plate Assay = format: in vivo; conditions: for Hot Plate Assay - Rat ED50, inactive: at 360 mg/kg; for ED50: po, 1 h, read-out: Hot Plate Assay - Rat ED50
Excerpt: The rat hot plate assay incorporated 2 modifications of the mouse hot plate assay originally described by Eddy et al., J. Pharmacol. Exp. Ther. 98, 121-137 (1950). The first modification was enlargement of the diameter of the cylindrical (water filled) copper plate to 25.0 cm to accommodate rats instead of mice. The second modification was the use of a temperature controller to regulate a 250 watt infrared heat lamp which was activated via a thermistor probe attached to the undersurface of the top of the copper plate. The surface temperature was thus maintained at 45±1.0° C. (N=28 measurements of the plate temperature under experimental conditions). The time in which a rat placed on the hotplate responded by lifting, shaking or licking either of its hind or forelimbs was recorded in tenths of a second. Only animals responding in pretest within 6-13 seconds were used in the studies. Drugs were suspended in 0.5% sodium carboxymethylcellulose and administered orally, by gavage, in a volume of 1.00 ml/100 g.b. wt. 60 min prior to testing. […] The reaction time of 18.3 seconds represented the sum of the mean pretest times of 40 untreated rats plus the time of 3 standard deviations of the mean. ED50 's and their standard errors were estimated from a graph of the dose-response curves using the method of Miller and Tainter (Proc. Soc. Exp. Biol. Med. 57, 261-262 (1944). Following this procedure the analgesic activity of the compound (I) was compared to that of standard analgesic drugs (Table III).
*Duration of Action in Rat Hot Plate assay represents the time in hrs to
reduce 1.5 times the hot plate ED50 to 40% inhibition.

[2] = Yeast-Induced Hyperthermia Assay, antipyretic activity; format: in vivo; conditions: rat; for ED50: po; for antipyretic activity (in words): yeast-induced hyperthermia assay
Excerpt: The Yeast-Induced Hyperthermia Assay was used according to the procedure described by Khalili-Varasteh et al. in Arch. Int. Pharmacodyn.

[3] = Acetic Acid Writhing Test (AAWT) in the rat; format: in vivo; conditions: po, read-out: ED50 (Acetic Acid Writhing Assay in the Rat)
Excerpt: Using the procedure described by Koster et al. in Fed. Proc. 18, 412 (1959) and Vinegar et al. in Handbook of Experimental Pharmcology, 50-2, ch.

[4] = analgesic activity, assay not given (including inhibition by naloxone); format: in vivo
[5] = Carrageenin Pleurisy Assay (CPA), acute anti-inflammatory activity; format: in vivo, rat
Description: Following the procedure described by Vinegar et al. in Proc. Soc. Exp. Biol. Med. 151, 556, (1976), the acute anti-inflammatory activity of the compound (I) was compared with that of known anti-inflammatory drugs in the rat. The average 3 hour exudate volume for each drug-treated group was determined and the % inhibition relative to solvent-fed control animals calculated, the ED50 being the dose required to reduce the 3 hour exudate volume by 50%.

morphine receptor = experiment: binding to the morphine receptor
[6] = po, 1 h, rat, p.o., 6.0 kg Force, agent given 15 minutes before trypsin, pain scores 60 minutes after trypsin, read-out: ED50, 6.0 kg Force (Modified Trypsin Hyperalgesic Assay)
[7] = rat, p.o., 60 min prior to testing, plate 45±1.0° C.

What does the source list for `CC(=O)Nc1ccc(O)cc1` [Acetaminophen]?
ED50 [1, 6]: 95 ± 17.2 mg/kg; ED50 at 200 mg/kg ([1]; po, rat, p.o., 7.5 kg Force, @ 200 mg/kg, read-out: ED50, 7.5 kg Force (Modified Trypsin Hyperalgesic Assay), inactive): > 200 mg/kg; Hot Plate Assay - Rat ED50, inactive (Rat Hot Plate Assay; rat, p.o.): Inactive; ED50 [2]: 72 ± 8.6 mg/kg; antipyretic activity (in words) [2]: combats fever in the rat

Which ED50 ([1]; Rattus norvegicus, po, read-out: ED50, 6.0 kg Force (Modified Trypsin Hyperalgesic Assay), inactive) does the source give for `CC(=O)Oc1ccccc1C(=O)O` [Aspirin] here?
The ED50 was > 180 mg/kg.

And the “Hot Plate Assay - Rat ED50, inactive” value (Rat Hot Plate Assay; rat, p.o.)?
Its value is “Inactive”.

What about the ED50 [2] of the same molecule?
The ED50 was 50 ± 8.1 mg/kg.

What about the “antipyretic activity (in words)” value [2] of the same molecule?
The value was “combats fever in the rat”.

What about the ED50 ([3]; Rattus norvegicus) of the same molecule?
The ED50 was 21 ± 3.4 mg/kg.

Which ED50 ([1]; Rattus norvegicus, po, 1 h, read-out: ED50, 6.0 kg Force (Modified Trypsin Hyperalgesic Assay)) does the source give for `COc1ccc2c3c1O[C@H]1[C@@H](O)C=C[C@H]4[C@@H](C2)N(C)CC[C@@]341` [Codeine Phosphate] here?
Its ED50 is 10 ± 1.7 mg/kg.

What about the ED50 ([1]; Rattus norvegicus, po, 1 h, read-out: ED50, 7.5 kg Force (Modified Trypsin Hyperalgesic Assay)) of the same molecule?
The ED50 was 8.8 ± 2.77 mg/kg.

And the ED50 ([3]; Rattus norvegicus)?
The ED50 was 30 ± 2.7 mg/kg.

With `COc1ccc2c3c1O[C@H]1[C@@H](O)C=C[C@H]4[C@@H](C2)N(C)CC[C@@]341` [Codeine] as the molecule, how does the ED50 (Rat Hot Plate Assay; [7]) read?
Its ED50 is 57 ± 35.3 mg/kg.

And the “Hot plate Duration of Action (time to reduce 1.5 times the hot plate ED50 to 40% inhibition)” value (Rat Hot Plate Assay; rat, p.o., dose 90 mg/kg)?
Its value is 3.3 h.

Which “analgesic activity (in words)” value ([4]; in vivo) does the source give for `O=C1CCCN1c1ccc2c(c1)OCO2` [Compound I, 1-(1,3-benzodioxol-5-yl)-2-pyrrolidinone] here?
The value was “mild to moderately strong analgesic activity”.

And the “inhibition of analgesic activity by naloxone (in words)” value ([4]; naloxone)?
The value was “analgesic activity is not inhibited by naloxone”.

What about the ED50 [1, 6] of the same molecule?
The ED50 was 24 ± 5.3 mg/kg.

What about the ED50 ([1]; po, 1 h, rat, p.o., 7.5 kg Force, agent given 15 minutes before trypsin, pain scores 60 minutes after trypsin, read-out: ED50, 7.5 kg Force (Modified Trypsin Hyperalgesic Assay)) of the same molecule?
The ED50 was 23 ± 3.5 mg/kg.

And the “analgesic activity compared with known analgesics in the trypsin assay (in words)” value ([1]; trypsin assay, versus acetaminophen, aspirin, zomepirac, codeine, morphine)?
The value was “superior to acetaminophen and the prostaglandin synthetase inhibitors such as aspirin and zomepirac as shown in the trypsin assay but less active than the opiates such as codeine or morphine”.

What about the ED50 ([5]; po, 3 h, rat, p.o., relative to solvent-fed control animals, read-out: ED50, dose required to reduce the 3 hour exudate volume by 50% (CPA)) of the same molecule?
Its ED50 is 48 ± 10.5 mg/kg.

What about the “acute anti-inflammatory activity (in words)” value ([5]; rat, carrageenan pleurisy assay) of the same molecule?
The value was “potent, long-lasting acute anti-inflammatory activity”.

And the “acute anti-inflammatory action compared with acetaminophen (in words)” value ([5]; versus acetaminophen at comparable dose levels)?
The value was “more potent and to have a longer-lasting anti-inflammatory effect at comparable dose levels”.

And the ED50 (Rat Hot Plate Assay; [7])?
The ED50 was 86 ± 16.5 mg/kg.

What about the “Hot plate Duration of Action (time to reduce 1.5 times the hot plate ED50 to 40% inhibition)” value (Rat Hot Plate Assay; rat, p.o., dose 120 mg/kg) of the same molecule?
Its value is 5.0 h.

And the “duration of analgesic action (in words)” value (Rat Hot Plate Assay; versus codeine or morphine, assay not given)?
Its value is “significantly greater for compound (I) than for codeine or morphine”.

And the “binding to the morphine receptor (in words)” value (morphine receptor)?
Its value is “does not bind to the morphine receptor”.

What about the ED50 [2] of the same molecule?
The ED50 was 67 ± 4.2 mg/kg.

What about the “antipyretic activity (in words)” value [2] of the same molecule?
Its value is “antipyretic activity”.

What about the ED50 ([3]; rat, p.o.) of the same molecule?
The ED50 was 36 ± 7.1 mg/kg.

With `CN1CC[C@]23c4c5ccc(O)c4O[C@H]2[C@@H](O)C=C[C@H]3[C@H]1C5` [Morphine] as the molecule, how does the ED50 (Rat Hot Plate Assay; Rattus norvegicus) read?
Its ED50 is 17 ± 3.6 mg/kg.

And the “Hot plate Duration of Action (time to reduce 1.5 times the hot plate ED50 to 40% inhibition)” value (Rat Hot Plate Assay; rat, p.o., dose 30 mg/kg)?
The value was 2.5 h.
